Measurements as given in US10294202B2, “Pyrrolidinones as herbicides” (FMC Corporation, priority 2013, dated 2019).

Columns and labels:
[1] = system: kochia; assay: Test D pre-/postemergence herbicide test; format: in vivo, Kochia scoparia; conditions: for Plant response rating: Kochia, scale 0 to 100; for Plant response rating, Kochia: scale 0 to 100 (0 no effect, 100 complete control)
Excerpt: (§1) Seeds of plant species selected from bluegrass (annual bluegrass, Poa annua), blackgrass (Alopecurus myosuroides), canarygrass (littleseed canarygrass, Phalaris minor), chickweed (common chickweed, Stellaria media), galium (catchweed bedstraw, Galium aparine), bromegrass, downy (downy bromegrass, Bromus tectorum), field poppy (Papaver rhoeas), field violet (Viola arvensis), foxtail, green (green foxtail, Setaria viridis), deadnettle (henbit deadnettle, Lamium amplexicaule), ryegrass, Italian (Italian ryegrass, Lolium multiflorum), kochia (Kochia scoparia), lambsquarters (Chenopodium album), oilseed rape (Brassica napus), pigweed (Amaranthus retroflexus), chamomile (scentless chamomile, Matricaria inodora), Russian thistle (Salsola kali), speedwell (bird's-eye speedwell, Veronica persica), barley, spring (spring barley, Hordeum vulgare), wheat, spring (spring wheat, Triticum aestivum), buckwheat, wild (wild buckwheat, Polygonum convolvulus), mustard, wild (wild mustard, Sinapis arvensis), oat, wild (wild oat, Avena fatua), radish, wild (wild radish, Raphanus raphanistrum), […]), barley, winter (winter barley, Hordeum vulgare), and wheat, winter (winter wheat, Triticum aestivum) were planted into a silt loam soil and treated preemergence with test chemicals formulated in a non-phytotoxic solvent mixture which included a surfactant. At the same time, these species were planted in pots containing Redi-Earth® planting medium (Scotts Company, 14111 Scottslawn Road, Marysville, Ohio 43041) comprising spaghnum peat moss, vermiculite, wetting agent and starter nutrients and treated with postemergence applications of the test chemicals formulated in the same manner. Plants ranged in height from 2 to 18 cm (1- to 4-leaf stage). Treated plants and controls were maintained in a controlled growth environment for 7 to 21 days after which time all species were compared to controls and visually evaluated. Plant response ratings, summarized in Table D, are based on a scale of 0 to 100 where 0 is no effect and 100 is complete control. A dash (-) response means no test result.

[2] = system: radish, wild; assay: Test D pre-/postemergence herbicide test; format: in vivo, Raphanus raphanistrum; conditions: for Plant response rating, Radish, Wild: Preemergence, scale 0 to 100 (0 no effect, 100 complete control); for Plant response rating: Postemergence, Radish, Wild, scale 0 to 100
Excerpt: as §1

[3] = system: chamomile; assay: Test D pre-/postemergence herbicide test; format: in vivo, Matricaria inodora; conditions: for Plant response rating: Chamomile, scale 0 to 100; for Plant response rating, Chamomile: scale 0 to 100 (0 no effect, 100 complete control)
Excerpt: as §1

[4] = system: foxtail, green; assay: Test E preemergence herbicide test; format: in vivo, Setaria viridis; set-up: key: 0 = no effect, 100 = complete control
Excerpt: (§2) Seeds of plant species selected from corn (Zea mays), soybean (Glycine max), velvetleaf (Abutilon theophrasti), lambsquarters (Chenopodium album), wild poinsettia (Euphorbia heterophylla), pigweed, palmer (palmer pigweed, Amaranthus palmeri), waterhemp (common waterhemp, Amaranthus rudis), surinam grass (Brachiaria decumbens), crabgrass, large (large crabgrass, Digitaria sanguinalis), crabgrass, Brazil (Brazilian crabgrass, Digitaria horizontalis), panicum, fall (fall panicum, Panicum dichotomiflorum), foxtail, giant (giant foxtail, Setaria faberii), foxtail, green (green foxtail, Setaria viridis), goosegrass (Eleusine indica), johnsongrass (Sorghum halepense), ragweed (common ragweed, Ambrosia elatior), barnyardgrass (Echinochloa crus-galli), sandbur (southern sandbur, Cenchrus echinatus), arrowleaf […] rhombifolia), ryegrass, Italian (Italian ryegrass, Lolium multiflorum), dayflower, VA (Virginia dayflower, Commelina virginica), field bindweed (Convolvulus arvensis), morningglory (Ipomoea coccinea), nightshade (eastern black nightshade, Solanum ptycanthum), kochia (Kochia scoparia), nutsedge, yellow (yellow nutsedge, Cyperus esculentus), cocklebur (common cocklebur, Xanthium strumarium), smartweed (ladysthumb smartweed, Polygonum Persicaria) and beggarticks (hairy beggarticks, Bidens pilosa), were planted into a silt loam soil and treated preemergence with test chemicals formulated in a non-phytotoxic solvent mixture which included a surfactant. Treated plants and controls were maintained in a greenhouse for 21 days, after which time all species were compared to controls and visually evaluated. Plant response ratings, summarized in Table E, are based on a scale of 0 to 100 where 0 is no effect and 100 is complete control. A dash (-) response means no test result.

[5] = system: ragweed; assay: Test E preemergence herbicide test; format: in vivo, Ambrosia elatior; set-up: key: 0 = no effect, 100 = complete control
Excerpt: as §2

[6] = system: johnsongrass; assay: Test E preemergence herbicide test; format: in vivo, Sorghum halepense; set-up: key: 0 = no effect, 100 = complete control
Excerpt: as §2

SMILES	Plant response rating ([1]; Postemergence, 16 g ai/ha)	Plant response rating ([1]; Postemergence, 31 g ai/ha)	Plant response rating ([1]; Postemergence, 62 g ai/ha)	Plant response rating ([1]; Postemergence, 125 g ai/ha)	Plant response rating ([1]; Postemergence, 250 g ai/ha)	Plant response rating, Kochia ([1]; Preemergence, 62 g ai/ha)	Plant response rating, Kochia ([1]; Preemergence, 16 g ai/ha)	Plant response rating, Kochia ([1]; Preemergence, 31 g ai/ha)	Plant response rating ([1]; Preemergence, 125 g ai/ha)	Plant response rating ([1]; Preemergence, 250 g ai/ha)	Plant response rating, Radish, Wild ([2]; 16 g ai/ha)	Plant response rating ([3]; Postemergence, 16 g ai/ha)	Plant response rating ([3]; Postemergence, 31 g ai/ha)	Plant response rating ([3]; Postemergence, 62 g ai/ha)	Plant response rating ([3]; Postemergence, 125 g ai/ha)	Plant response rating ([3]; Postemergence, 250 g ai/ha)	Plant response rating, Chamomile ([3]; Preemergence, 62 g ai/ha)	Plant response rating, Chamomile ([3]; Preemergence, 16 g ai/ha)	Plant response rating, Chamomile ([3]; Preemergence, 31 g ai/ha)	Plant response rating, Radish, Wild ([2]; 62 g ai/ha)	also measured
O=C1NCC(c2ccc(Cl)c(F)c2)C1C(=O)Nc1cccc(F)c1F (stereo not shown) [Compound 52]	0	0	20	25	35	20	0	20	20	40	0	0	0	0	20	20	75	20	20		Plant response rating ([3]; Preemergence, 125 g ai/ha): 75; Plant response rating ([3]; Preemergence, 250 g ai/ha): 80
O=C1NCC(c2ccc(F)c(C(F)(F)F)c2)C1C(=O)Nc1cccc(F)c1F (racemic) [Compound 77]						75		35	80	85										10	Plant response rating, Radish, Wild ([2]; 125 g ai/ha): 25; Plant response rating, Radish, Wild ([2]; 31 g ai/ha): 0; Plant response rating, Radish, Wild ([2]; 250 g ai/ha): 30
O=C1NC[C@H](c2cccc(C(F)(F)F)c2)[C@H]1C(=O)Nc1cccc(F)c1F [Compound 206]						60		45		80										25	Plant response rating, Kochia ([1]; Preemergence, 125 g ai/ha): 70; Plant response rating, Radish, Wild ([2]; 125 g ai/ha): 30; Plant response rating, Radish, Wild ([2]; 31 g ai/ha): 25; Plant response rating, Radish, Wild ([2]; 250 g ai/ha): 30; Plant response rating, Foxtail, Green ([4]; 31 g ai/ha): 80; Plant response rating, Foxtail, Green ([4]; 62 g ai/ha): 98; Plant response rating, Foxtail, Green ([4]; 125 g ai/ha): 98; Plant response rating, Foxtail, Green ([4]; 250 g ai/ha): 98; Plant response rating, Ragweed ([5]; 31 g ai/ha): 0; Plant response rating, Ragweed ([5]; 62 g ai/ha): 0; Plant response rating, Ragweed ([5]; 125 g ai/ha): 0; Plant response rating, Ragweed ([5]; 250 g ai/ha): 75; Plant response rating, Johnsongrass ([6]; 31 g ai/ha): 30; Plant response rating, Johnsongrass ([6]; 62 g ai/ha): 50; Plant response rating, Johnsongrass ([6]; 125 g ai/ha): 75; Plant response rating, Johnsongrass ([6]; 250 g ai/ha): 90
O=C1NCC(c2ccc(Cl)c(Cl)c2)C1C(=O)Nc1ccccc1F (racemic) [Compound 14]																					Plant response rating, Foxtail, Green ([4]; 16 g ai/ha): 0; Plant response rating, Foxtail, Green ([4]; 31 g ai/ha): 0; Plant response rating, Foxtail, Green ([4]; 62 g ai/ha): 0; Plant response rating, Foxtail, Green ([4]; 125 g ai/ha): 10; Plant response rating, Foxtail, Green ([4]; 250 g ai/ha): 70; Plant response rating, Ragweed ([5]; 16 g ai/ha): 0; Plant response rating, Ragweed ([5]; 31 g ai/ha): 0; Plant response rating, Ragweed ([5]; 62 g ai/ha): 0; Plant response rating, Ragweed ([5]; 125 g ai/ha): 0; Plant response rating, Ragweed ([5]; 250 g ai/ha): 0; Plant response rating, Johnsongrass ([6]; 16 g ai/ha): 0; Plant response rating, Johnsongrass ([6]; 31 g ai/ha): 0; Plant response rating, Johnsongrass ([6]; 62 g ai/ha): 0; Plant response rating, Johnsongrass ([6]; 125 g ai/ha): 0; Plant response rating, Johnsongrass ([6]; 250 g ai/ha): 0
O=C1NCC(c2cc(F)c(F)cc2F)C1C(=O)Nc1cccc(F)c1F (stereo not shown) [Compound 50]	10	15	15	0		10	5	10	0		0	0	0	0	0		0	0	0	0	Plant response rating ([2]; 16 g ai/ha): 0; Plant response rating ([2]; 31 g ai/ha): 0; Plant response rating ([2]; 62 g ai/ha): 0; Plant response rating ([2]; 125 g ai/ha): 0; Plant response rating ([3]; Preemergence, 125 g ai/ha): 5
O=C1NCC(c2ccc(C(F)(F)F)cc2)C1C(=O)Nc1ccccc1F (stereo not shown) [Compound 231]		55	60	60	65	20		0		85			20	25	50	50	75		75	0	Plant response rating, Kochia ([1]; Preemergence, 125 g ai/ha): 80; Plant response rating ([2]; 31 g ai/ha): 30; Plant response rating ([2]; 62 g ai/ha): 70; Plant response rating ([2]; 125 g ai/ha): 75; Plant response rating ([2]; 250 g ai/ha): 70; Plant response rating, Radish, Wild ([2]; 125 g ai/ha): 0; Plant response rating, Radish, Wild ([2]; 31 g ai/ha): 0; Plant response rating, Radish, Wild ([2]; 250 g ai/ha): 0; Plant response rating, Chamomile ([3]; Preemergence, 125 g ai/ha): 80; Plant response rating ([3]; Preemergence, 250 g ai/ha): 100
O=C1NCC(c2ccc(OC(F)F)cc2)C1C(=O)Nc1cccc(F)c1F (racemic) [Compound 350]																					Plant response rating, Foxtail, Green ([4]; 31 g ai/ha): 20; Plant response rating, Foxtail, Green ([4]; 62 g ai/ha): 35; Plant response rating, Foxtail, Green ([4]; 125 g ai/ha): 80; Plant response rating, Foxtail, Green ([4]; 250 g ai/ha): 85; Plant response rating, Ragweed ([5]; 31 g ai/ha): 0; Plant response rating, Ragweed ([5]; 62 g ai/ha): 0; Plant response rating, Ragweed ([5]; 125 g ai/ha): 60; Plant response rating, Ragweed ([5]; 250 g ai/ha): 65; Plant response rating, Johnsongrass ([6]; 31 g ai/ha): 0; Plant response rating, Johnsongrass ([6]; 62 g ai/ha): 0; Plant response rating, Johnsongrass ([6]; 125 g ai/ha): 0; Plant response rating, Johnsongrass ([6]; 250 g ai/ha): 0
O=C1NCC(c2ccc(F)c(F)c2)C1C(=O)Nc1ccccc1C(F)(F)F (racemic) [Compound 6]	0	5	5	5	10	30	0	0	40	50	0	0	0	0	0	0	30	0	0		Plant response rating ([2]; 16 g ai/ha): 0; Plant response rating ([2]; 31 g ai/ha): 0; Plant response rating ([2]; 62 g ai/ha): 0; Plant response rating ([2]; 125 g ai/ha): 0; Plant response rating ([2]; 250 g ai/ha): 10; Plant response rating ([3]; Preemergence, 125 g ai/ha): 70; Plant response rating ([3]; Preemergence, 250 g ai/ha): 90
